The results in this text go back to patent US20160256515A1, “COMPOSITIONS AND METHODS FOR PREDICTION AND TREATMENT OF HUMAN CYTOMEGALOVIRUS INFECTIONS” (THE JOHNS HOPKINS UNIVERSITY, priority 2013, published 2016).

Structures are written as SMILES. Like-named read-outs stand apart in the source and are kept apart here.

The subject of one assay is NOD2 mRNA. The assay is classed as cell-based, human. Particulars: non-infected HFFs, MDP 10 μg/ml.
Another assay has as its system human CMV (HCMV). The assay is described as follows: CMV plaque numbers in human fibroblasts after pre-treatment. Particulars: pre-treatment of human fibroblasts followed by CMV infection. The format is cell-based, human cytomegalovirus.
A further assay has as its system IFN-β. The assay is described as follows: IFN-β response (qPCR, ELISA) after pretreatment and CMV infection. The format is cell-based, human. An excerpt: RNA isolation and real time quantitative reverse transcriptase (qRT) PCR: Total RNA was isolated from cultured cells using RNeasy Mini kit (Qiagen, Georgetown, Md.) according to manufacturer's instructions. RevertAid first strand cDNA synthesis kit (Fermentas life sciences, Cromwell Park, Md.) was used to synthesize first strand cDNA from total RNA using oligo-dT primers. Negative reverse-transcriptase (−RT) reactions were included to ensure the specificity of qRT-PCR reactions. Synthesis of first strand cDNA from mRNA template was carried out at 42° C. for 1 h. Quantitative RT-PCR (qRT-PCR) was performed using specific primers and SYBER green (Fermentas life science) with two-step cycling protocol (95° C. for 15 s, 60° C. for 1 min). Reactions were performed in triplicates and GAPDH was used as internal control. mRNA levels in HCMV-infected cells were normalized to the mRNA produced in non-infected HFFs in addition to the internal normalization of each sample to GAPDH. The primers and gene targets appear in Table 1.
ELISA: Human interferon β (IFN-β) specific ELISA kit (PBL Interferon Source) was used to measure levels of secreted IFN-β from HFF-control and HFF-NOD2 overexpressing cells according to manufacturer's instructions.
(Quantitative PCR measures a nucleic acid by following its amplification.)

On to `CC(=O)N[C@H]1C(O)O[C@H](CO)[C@@H](O)[C@@H]1O[C@H](C)C(=O)N[C@@H](C)C(=O)N[C@H](CCC(=O)O)C(N)=O` (mixture of isomers) [MDP, muramyl dipeptide], for which the “induction of NOD2 expression” value is listed as “two fold” in the assay on NOD2 mRNA (12 h) and 1400 fold in the assay with NOD2 mRNA (72 h).
On to `C[C@H](N)C(=O)N[C@H](CCC(=O)NC(CCCC(N)C(=O)O)C(=O)O)C(=O)O` (stereo partly drawn) [tri-DAP, L-Ala-γ-D-Glu-mDAP], for which, in the assay with human CMV (HCMV), the plaque numbers result is “significant reduction”. For the same compound, the “interferon response (IFN-β)” value with IFN-β (pretreatment) was “enhanced”. Also, in the assay on IFN-β (pretreatment followed by CMV infection, qPCR and ELISA), the “mRNA and protein expression of IFN-β” value is listed as “increased”. In addition, in the assay on IFN-β (treatment in NOD2 KD cells), the “IFN-β responses in NOD2 KD cells” value is recorded as “can initiate independent IFN-β responses”.
